# Laboratory results published in article PMC9814781, “Structure-based design of a dual-warhead covalent inhibitor of FGFR4” (Communications Chemistry, 2022).
# Where two headings read alike, the source gives them in different places.
# Columns and labels:
# [1] = biological target: BRAF[V600E] (Homo sapiens, UniProt P15056, V600E); assay: Kinase selectivity profiling
# [2] = biological target: AurB (Homo sapiens, UniProt Q96GD4); assay: Kinase selectivity profiling
# [3] = biological target: CK2α1/β (Homo sapiens, UniProt P68400); assay: Kinase selectivity profiling
# [4] = biological target: JAK1 (Homo sapiens, UniProt P23458); assay: Kinase selectivity profiling
# [5] = biological target: CDK18/CycY (Homo sapiens, UniProt Q07002); assay: Kinase selectivity profiling
# [6] = biological target: PIK3CB/PIK3R1 (Homo sapiens, UniProt P42338); assay: Kinase selectivity profiling
# [7] = biological target: ZAP70 (Homo sapiens, UniProt P43403); assay: Kinase selectivity profiling
# [8] = biological target: CDK3/CycE1 (Homo sapiens, UniProt Q00526); assay: Kinase selectivity profiling
# [9] = biological target: KHS (Homo sapiens, UniProt Q9Y4K4); assay: Kinase selectivity profiling
# [10] = biological target: TTK (Homo sapiens, UniProt P33981); assay: Kinase selectivity profiling
# [11] = biological target: IKKε(IKBKE) (Homo sapiens, UniProt Q14164); assay: Kinase selectivity profiling
# [12] = biological target: p38α (Homo sapiens, UniProt Q16539); assay: Kinase selectivity profiling
# [13] = biological target: HIPK1 (Homo sapiens, UniProt Q86Z02); assay: Kinase selectivity profiling
# [14] = biological target: TRKA (Homo sapiens, UniProt P04629); assay: Kinase selectivity profiling
# [15] = biological target: SRC (Homo sapiens, UniProt P12931); assay: Kinase selectivity profiling
# [16] = biological target: TAOK2 (Homo sapiens, UniProt Q9UL54); assay: Kinase selectivity profiling
# [17] = biological target: SYK (Homo sapiens, UniProt P43405); assay: Kinase selectivity profiling
# [18] = In vitro plasma stability study; format: in vitro ADME; conditions: for half-life at 2 µg/mL: 37°C, read-out: in vitro t1/2 (converted); for R squared / Slope: linear regression 0–10 h
# Protocol: The incubation was terminated by the addition of 300 µL of acetonitrile containing 50 ng/mL roblitinib as internal standard. After vortex and centrifugation, the supernatant was analyzed using ultraperformance liquid chromatography-tandem mass spectrometry.
# [19] = biological target: CK2α2/β (Homo sapiens, UniProt P19784); assay: Kinase selectivity profiling
# [20] = tested on: Huh7; assay: Huh7 viability assay; format: cell-based; conditions: Homo sapiens, Huh-7; Huh7, FGF19-overexpressing HCC cell line, 72 h, CCK-8
# Protocol: Hep3B (ThermoFisher Scientific, 11965, America) and Huh7 (ThermoFisher Scientific, 11095, America) cells were seeded into 96-well plates at 4000 cells/well and 2000 cells/well, respectively. […] Cell viabilities were measured by a CCK-8 kit (Vazyme, China). The IC50 values were calculated using GraphPad Prism software.
# [21] = biological target: FAK (Homo sapiens, UniProt Q05397); assay: Kinase selectivity profiling
# [22] = biological target: FGFR3 (Homo sapiens, UniProt P22607); assay: Kinase selectivity profiling
# [23] = GSH reaction assay; format: in vitro ADME; conditions: GSH 5 mM, inhibitor 1 mM, 37°C, 10–60 min
# Protocol: GSH (5 mM) and inhibitor (1 mM) or DMSO control were mixed in equal volumes and reacted at 37°C for 10 min, 20 min, 30 min, 40 min, 50 min, and 60 min. The remaining GSH was detected with DTNB (Beyotime, China), and the absorption light was measured at 412 nm on a plate reader (Perkin-Elmer). Data were determined using the time (min) versus % of control in Origin 2018 software.
# [24] = biological target: HIPK4 (Homo sapiens, UniProt Q8NE63); assay: Kinase selectivity profiling
# [25] = biological target: CDK1/CycE1 (Homo sapiens, UniProt P06493); assay: Kinase selectivity profiling
# [26] = biological target: NEK1 (Homo sapiens, UniProt Q96PY6); assay: Kinase selectivity profiling
# [27] = biological target: Erk1 (Homo sapiens, UniProt P27361); assay: Kinase selectivity profiling
# [28] = biological target: LCK (Homo sapiens, UniProt P06239); assay: Kinase selectivity profiling
# [29] = biological target: MINK (Homo sapiens, UniProt Q8N4C8); assay: Kinase selectivity profiling
# [30] = biological target: JAK3 (Homo sapiens, UniProt P52333); assay: Kinase selectivity profiling
# [31] = biological target: DDR2 (Homo sapiens, UniProt Q16832); assay: Kinase selectivity profiling
# [32] = biological target: ALK4 (Homo sapiens, UniProt P36896); assay: Kinase selectivity profiling
# [33] = biological target: PIM2 (Homo sapiens, UniProt Q9P1W9); assay: Kinase selectivity profiling
# [34] = biological target: BRSK2 (Homo sapiens, UniProt Q8IWQ3); assay: Kinase selectivity profiling
# Sequence of BRSK2 (Q8IWQ3 whole entry): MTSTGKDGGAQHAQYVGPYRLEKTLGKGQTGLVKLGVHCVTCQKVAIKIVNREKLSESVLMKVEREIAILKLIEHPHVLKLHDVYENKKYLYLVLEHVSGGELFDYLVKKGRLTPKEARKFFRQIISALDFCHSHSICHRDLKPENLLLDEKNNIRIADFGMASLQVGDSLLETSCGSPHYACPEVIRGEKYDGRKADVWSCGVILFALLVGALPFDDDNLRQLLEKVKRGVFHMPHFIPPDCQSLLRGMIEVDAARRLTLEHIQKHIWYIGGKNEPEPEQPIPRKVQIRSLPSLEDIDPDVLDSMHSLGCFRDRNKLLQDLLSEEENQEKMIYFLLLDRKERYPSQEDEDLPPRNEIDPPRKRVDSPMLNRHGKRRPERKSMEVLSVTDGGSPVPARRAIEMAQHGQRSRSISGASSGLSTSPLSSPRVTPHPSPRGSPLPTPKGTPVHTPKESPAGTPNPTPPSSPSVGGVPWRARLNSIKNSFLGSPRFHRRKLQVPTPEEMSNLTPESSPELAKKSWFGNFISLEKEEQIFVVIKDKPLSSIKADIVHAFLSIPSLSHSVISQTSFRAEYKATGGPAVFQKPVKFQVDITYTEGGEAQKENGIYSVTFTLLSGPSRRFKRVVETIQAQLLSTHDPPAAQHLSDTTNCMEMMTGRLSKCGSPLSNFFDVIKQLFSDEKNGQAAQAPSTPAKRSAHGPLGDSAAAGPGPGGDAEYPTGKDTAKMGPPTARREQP
# Sequence of CDK3/CycE1 (Q00526 whole entry): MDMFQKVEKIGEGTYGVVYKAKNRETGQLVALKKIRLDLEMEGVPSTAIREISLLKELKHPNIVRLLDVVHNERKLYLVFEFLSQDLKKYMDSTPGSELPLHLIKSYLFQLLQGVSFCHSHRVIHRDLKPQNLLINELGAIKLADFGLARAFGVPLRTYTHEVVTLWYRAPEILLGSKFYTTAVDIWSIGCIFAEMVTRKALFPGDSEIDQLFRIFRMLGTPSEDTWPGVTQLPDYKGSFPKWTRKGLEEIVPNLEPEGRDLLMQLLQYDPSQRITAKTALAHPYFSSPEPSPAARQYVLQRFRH
# Sequence of CDK3/CycE1 (P24864 whole entry partner): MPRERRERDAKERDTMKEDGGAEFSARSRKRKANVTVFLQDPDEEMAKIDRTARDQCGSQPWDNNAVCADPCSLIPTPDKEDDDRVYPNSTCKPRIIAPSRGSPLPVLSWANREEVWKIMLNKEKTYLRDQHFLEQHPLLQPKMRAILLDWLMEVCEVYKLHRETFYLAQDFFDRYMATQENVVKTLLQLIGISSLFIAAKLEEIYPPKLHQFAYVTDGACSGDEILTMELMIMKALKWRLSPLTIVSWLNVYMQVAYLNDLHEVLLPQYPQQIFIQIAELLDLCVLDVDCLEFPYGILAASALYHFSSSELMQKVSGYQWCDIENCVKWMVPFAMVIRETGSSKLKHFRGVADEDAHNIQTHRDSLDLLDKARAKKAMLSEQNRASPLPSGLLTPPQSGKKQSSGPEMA
# Sequence of TAOK2 (Q9UL54 whole entry): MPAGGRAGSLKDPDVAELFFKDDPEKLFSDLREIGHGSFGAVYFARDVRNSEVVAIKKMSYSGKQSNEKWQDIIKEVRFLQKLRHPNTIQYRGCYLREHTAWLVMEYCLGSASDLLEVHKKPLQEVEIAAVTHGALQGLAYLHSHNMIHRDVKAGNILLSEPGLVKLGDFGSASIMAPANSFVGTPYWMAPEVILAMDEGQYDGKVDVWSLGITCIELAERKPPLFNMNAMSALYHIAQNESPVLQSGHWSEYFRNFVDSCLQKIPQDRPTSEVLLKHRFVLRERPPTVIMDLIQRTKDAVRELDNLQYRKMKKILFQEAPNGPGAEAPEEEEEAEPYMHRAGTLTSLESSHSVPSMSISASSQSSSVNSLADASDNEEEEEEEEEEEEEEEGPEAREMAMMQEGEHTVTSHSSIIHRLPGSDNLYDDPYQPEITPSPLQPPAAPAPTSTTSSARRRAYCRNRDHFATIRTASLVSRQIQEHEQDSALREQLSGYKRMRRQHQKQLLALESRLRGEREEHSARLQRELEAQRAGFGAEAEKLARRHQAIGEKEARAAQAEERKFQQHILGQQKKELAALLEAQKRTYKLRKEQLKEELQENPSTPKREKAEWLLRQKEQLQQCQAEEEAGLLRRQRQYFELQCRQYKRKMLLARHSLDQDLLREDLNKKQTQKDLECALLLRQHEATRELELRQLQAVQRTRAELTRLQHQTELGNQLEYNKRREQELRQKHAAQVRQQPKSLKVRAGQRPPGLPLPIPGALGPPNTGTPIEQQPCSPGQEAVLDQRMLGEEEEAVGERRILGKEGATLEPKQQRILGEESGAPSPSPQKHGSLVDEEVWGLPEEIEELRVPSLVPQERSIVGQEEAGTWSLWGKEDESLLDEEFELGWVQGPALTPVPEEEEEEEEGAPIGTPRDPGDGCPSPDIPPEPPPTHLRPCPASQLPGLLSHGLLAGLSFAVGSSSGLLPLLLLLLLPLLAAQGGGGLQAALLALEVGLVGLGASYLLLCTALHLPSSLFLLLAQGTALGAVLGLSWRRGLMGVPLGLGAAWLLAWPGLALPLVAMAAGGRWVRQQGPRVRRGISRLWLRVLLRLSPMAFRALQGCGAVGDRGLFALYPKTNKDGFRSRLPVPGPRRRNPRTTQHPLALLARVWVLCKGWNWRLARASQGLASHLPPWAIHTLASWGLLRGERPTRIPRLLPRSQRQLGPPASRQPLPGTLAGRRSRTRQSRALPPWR
# Sequence of CDK18/CycY (Q07002 whole entry): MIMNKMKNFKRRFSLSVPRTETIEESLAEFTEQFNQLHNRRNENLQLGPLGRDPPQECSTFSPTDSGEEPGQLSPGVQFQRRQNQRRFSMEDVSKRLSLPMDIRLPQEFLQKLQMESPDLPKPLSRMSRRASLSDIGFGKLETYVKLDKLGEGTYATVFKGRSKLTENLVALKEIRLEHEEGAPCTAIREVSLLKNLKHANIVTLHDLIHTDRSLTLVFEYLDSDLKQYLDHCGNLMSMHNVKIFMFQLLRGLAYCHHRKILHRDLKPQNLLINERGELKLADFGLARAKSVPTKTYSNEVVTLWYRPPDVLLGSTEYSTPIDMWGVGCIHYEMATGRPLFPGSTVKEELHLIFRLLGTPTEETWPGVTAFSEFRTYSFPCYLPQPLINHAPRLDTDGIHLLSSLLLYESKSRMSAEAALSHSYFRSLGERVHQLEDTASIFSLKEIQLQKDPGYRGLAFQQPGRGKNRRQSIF
# Sequence of CDK18/CycY (Q8ND76 whole entry partner): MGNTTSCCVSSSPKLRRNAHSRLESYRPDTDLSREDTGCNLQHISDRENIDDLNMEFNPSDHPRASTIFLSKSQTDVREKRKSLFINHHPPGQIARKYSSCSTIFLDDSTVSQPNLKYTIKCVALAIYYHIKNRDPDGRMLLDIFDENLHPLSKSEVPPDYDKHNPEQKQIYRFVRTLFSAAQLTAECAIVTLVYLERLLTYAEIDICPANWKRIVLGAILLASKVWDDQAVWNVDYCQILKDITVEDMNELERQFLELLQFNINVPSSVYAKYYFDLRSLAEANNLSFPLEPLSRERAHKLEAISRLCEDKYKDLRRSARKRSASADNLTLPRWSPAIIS
# Sequence of JAK3 (P52333 whole entry): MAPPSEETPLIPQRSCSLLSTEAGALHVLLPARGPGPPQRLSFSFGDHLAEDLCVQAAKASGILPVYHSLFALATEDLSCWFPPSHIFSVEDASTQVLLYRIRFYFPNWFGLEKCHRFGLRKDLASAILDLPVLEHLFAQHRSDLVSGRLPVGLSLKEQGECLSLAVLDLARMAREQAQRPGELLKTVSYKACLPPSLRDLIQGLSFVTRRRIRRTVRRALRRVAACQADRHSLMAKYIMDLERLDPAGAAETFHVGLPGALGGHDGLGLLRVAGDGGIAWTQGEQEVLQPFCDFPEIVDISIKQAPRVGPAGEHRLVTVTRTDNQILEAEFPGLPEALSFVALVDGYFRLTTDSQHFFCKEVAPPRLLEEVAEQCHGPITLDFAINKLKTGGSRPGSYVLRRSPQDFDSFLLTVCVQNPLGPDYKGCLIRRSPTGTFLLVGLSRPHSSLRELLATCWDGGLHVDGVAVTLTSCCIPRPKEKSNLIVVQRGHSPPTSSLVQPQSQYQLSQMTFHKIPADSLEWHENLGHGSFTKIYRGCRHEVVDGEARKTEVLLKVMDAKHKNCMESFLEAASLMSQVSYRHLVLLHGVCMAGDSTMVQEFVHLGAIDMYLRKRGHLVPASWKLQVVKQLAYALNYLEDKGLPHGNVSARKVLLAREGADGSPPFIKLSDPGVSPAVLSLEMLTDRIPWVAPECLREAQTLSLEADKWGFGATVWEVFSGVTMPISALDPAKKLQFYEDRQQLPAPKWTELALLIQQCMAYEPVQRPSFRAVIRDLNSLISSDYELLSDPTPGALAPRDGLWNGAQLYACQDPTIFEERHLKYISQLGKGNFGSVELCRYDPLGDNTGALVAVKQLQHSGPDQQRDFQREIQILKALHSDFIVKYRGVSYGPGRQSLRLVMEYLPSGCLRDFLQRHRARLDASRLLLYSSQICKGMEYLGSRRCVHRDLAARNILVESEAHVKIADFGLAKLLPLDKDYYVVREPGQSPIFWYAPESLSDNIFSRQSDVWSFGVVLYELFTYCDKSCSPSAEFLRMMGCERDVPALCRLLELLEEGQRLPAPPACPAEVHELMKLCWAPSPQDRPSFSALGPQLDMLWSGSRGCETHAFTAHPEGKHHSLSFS
# Sequence of p38α (Q16539 whole entry): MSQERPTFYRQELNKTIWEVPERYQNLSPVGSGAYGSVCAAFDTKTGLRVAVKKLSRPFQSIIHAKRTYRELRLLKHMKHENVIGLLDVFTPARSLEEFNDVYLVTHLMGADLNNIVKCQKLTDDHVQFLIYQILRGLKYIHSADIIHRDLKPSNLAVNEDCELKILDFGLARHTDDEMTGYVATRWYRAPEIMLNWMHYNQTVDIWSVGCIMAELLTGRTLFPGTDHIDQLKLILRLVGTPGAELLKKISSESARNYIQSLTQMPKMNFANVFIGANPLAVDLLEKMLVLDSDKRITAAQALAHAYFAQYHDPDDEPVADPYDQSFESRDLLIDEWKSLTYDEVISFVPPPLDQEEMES
smiles,measurement,setting,value
C=CC(=O)Nc1ccccc1Nc1ncc2c(n1)N(CCCN1CCN(C(=O)C=C)CC1)C(=O)N(c1cc(OC)cc(OC)c1)C2 [CXF-009],inhibition at 1 µM,[1],-1.68%
same,inhibition at 1 µM,[2],-2.47%
same,inhibition at 1 µM,[3],-3.22%
same,inhibition at 1 µM,[4],-12.3%
same,inhibition at 1 µM,[5],-3.74%
same,inhibition at 1 µM,[6],0.17%
same,inhibition at 1 µM,[7],11.8%
same,inhibition at 1 µM,[8],-7.17%
same,inhibition at 1 µM,[9],4.11%
same,inhibition at 1 µM,[10],6.62%
same,inhibition at 1 µM,[11],7.21%
same,inhibition at 1 µM,[12],10.6%
same,inhibition at 1 µM,[13],-5.67%
same,inhibition at 1 µM,[14],26.2%
same,inhibition at 1 µM,[15],3.48%
same,inhibition at 1 µM,[16],-3.76%
same,inhibition at 1 µM,[17],13.6%
same,half-life at 2 µg/mL,[18]; human plasma,3.73 h
same,R squared,[18]; human plasma,0.9969
same,Slope,[18]; human plasma,−0.1859
same,half-life at 2 µg/mL,[18]; rat plasma,4.99 h
same,R squared,[18]; rat plasma,0.9935
same,Slope,[18]; rat plasma,−0.1388
same,inhibition at 1 µM,[19],-7.98%
same,IC50,[20],727 nM
same,inhibition at 1 µM,[21],-0.41%
same,inhibition at 1 µM,[22],11.1%
same,"GSH reactivity (remaining GSH, DTNB)",[23],slightly more reactive to GSH than PRN1371
same,inhibition at 1 µM,[24],2.32%
same,inhibition at 1 µM,[25],-7.18%
same,inhibition at 1 µM,[26],1.39%
same,inhibition at 1 µM,[27],3.99%
same,inhibition at 1 µM,[28],-3.46%
same,inhibition at 1 µM,[29],16.6%
same,inhibition at 1 µM,[30],1.94%
same,inhibition at 1 µM,[31],2.15%
same,inhibition at 1 µM,[32],0.23%
same,inhibition at 1 µM,[33],2.38%
same,inhibition at 1 µM,[34],-5.03%
